Non-standard residues stand in square brackets, D forms with d. Residues, ends and D or L forms follow the SMILES beside them. ξ: configuration not given here. *: point of attachment. hCys = N[C@@H](CCS)C(=O)O; Dap = NC[C@H](N)C(=O)O; ξDap = NCC(N)C(=O)O; ClAc = O=C(CCl)*
Columns and labels:
Assay in all cases: DELFIA
[1] = molecular target: Apoptosis regulator Bcl-2 (Homo sapiens, UniProt P10415)
Experimental: (§1) After 1 h of incubation at RT to allow the immunoreaction to complete, a second washing step allowed removal of the unbound protein in complex with Eu antibodies if displaced by a test compound. […] Each well received a final DMSO concentration equal to 1%. Protein, peptide, and antibody solutions were prepared in DELFIA assay buffer (PerkinElmer).

[2] = molecular target: T1, Bcl-2-related protein A1 [1-149] (Human, UniProt Q16548)
T1 construct: 1-149
T1 sequence (Q16548 whole entry): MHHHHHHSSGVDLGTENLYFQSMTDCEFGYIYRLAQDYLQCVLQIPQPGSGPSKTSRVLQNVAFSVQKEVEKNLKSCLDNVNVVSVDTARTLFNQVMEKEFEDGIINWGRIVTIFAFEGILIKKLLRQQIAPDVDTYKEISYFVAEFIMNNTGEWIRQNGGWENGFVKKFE
Experimental: as §1

[3] = molecular target: Isoform Bcl-X(L) of Bcl-2-like protein 1 (Bcl-xL) (Homo sapiens, UniProt Q07817)
Sequence of Isoform Bcl-X(L) of Bcl-2-like protein 1 (Bcl-xL) (Q07817 whole entry G70A, canonical isoform): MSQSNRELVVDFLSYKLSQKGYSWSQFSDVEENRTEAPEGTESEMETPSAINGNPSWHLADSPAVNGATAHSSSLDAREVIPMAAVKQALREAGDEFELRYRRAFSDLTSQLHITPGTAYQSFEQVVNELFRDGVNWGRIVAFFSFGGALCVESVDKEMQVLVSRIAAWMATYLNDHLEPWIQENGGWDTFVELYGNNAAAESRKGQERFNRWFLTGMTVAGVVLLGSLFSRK
Experimental: as §1

[4] = molecular target: Induced myeloid leukemia cell differentiation protein Mcl-1 (Homo sapiens, UniProt Q07820)
Sequence of Induced myeloid leukemia cell differentiation protein Mcl-1 (Q07820 whole entry): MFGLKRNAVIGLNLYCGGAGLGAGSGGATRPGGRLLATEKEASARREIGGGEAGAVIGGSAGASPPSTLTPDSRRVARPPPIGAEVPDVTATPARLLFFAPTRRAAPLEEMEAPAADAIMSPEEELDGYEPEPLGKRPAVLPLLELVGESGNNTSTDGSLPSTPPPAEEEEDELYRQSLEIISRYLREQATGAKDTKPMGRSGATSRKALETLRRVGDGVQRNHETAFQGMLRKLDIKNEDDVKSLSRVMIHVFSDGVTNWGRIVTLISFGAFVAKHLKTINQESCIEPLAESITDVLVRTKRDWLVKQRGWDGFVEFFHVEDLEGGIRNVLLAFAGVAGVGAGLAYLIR
Experimental: as §1

Sequence of Apoptosis regulator Bcl-2 (P10415 whole entry): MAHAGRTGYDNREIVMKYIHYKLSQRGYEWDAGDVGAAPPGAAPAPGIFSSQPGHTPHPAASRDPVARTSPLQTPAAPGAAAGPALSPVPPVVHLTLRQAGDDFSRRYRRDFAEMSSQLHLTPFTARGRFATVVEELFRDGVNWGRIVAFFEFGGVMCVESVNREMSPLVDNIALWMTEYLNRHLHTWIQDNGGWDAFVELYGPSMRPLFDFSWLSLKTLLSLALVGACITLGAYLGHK

Row | Compound | IC50 [1] [µM] | IC50 [2] [µM] | IC50 [3] [µM] | IC50 [4] [µM] | Kd ([2]; pH 7.4, 25 °C) [µM] | Kd ([3]; pH 7.4) [µM] | Kd ([4]; pH 7.4, 25 °C) [µM]
1 | CC[C@H](C)[C@H](NC(=O)[C@H](CCCCN)NC(=O)[C@H](CCCNC(=N)N)NC(=O)[C@H](CC(C)C)NC(=O)[C@H](CCC(N)=O)NC(=O)[C@H](C)NC(=O)[C@H](C)NC(=O)[C@H](Cc1ccccc1)NC(=O)[C@H](CCC(=O)O)NC(=O)[C@@H]1CCCN1C(=O)[C@@H]1CCCN1C(=O)[C@H](CC(C)C)NC(=O)[C@H](CCC(=O)O)NC(=O)[C@H](C)NC(C)=O)C(=O)NCC(=O)N[C@@H](CC(=O)O)C(=O)N[C@@H](CCCCN)C(=O)N[C@H](C(=O)N[C@@H](Cc1ccc(O)cc1)C(=O)N[C@@H](CS)C(N)=O)C(C)C | > 1 | > 1 | > 1 | – | – | – | –
2 | CC[C@H](C)[C@H](NC(=O)[C@H](CCCNC(=N)N)NC(=O)[C@H](CCCNC(=N)N)NC(=O)[C@H](CC(C)C)NC(=O)[C@H](CCC(N)=O)NC(=O)[C@H](C)NC(=O)[C@H](CS)NC(=O)[C@H](CCC(=O)O)NC(=O)[C@H](CC(=O)O)NC(=O)[C@H](CCCCN)NC(=O)[C@H](CC(C)C)NC(=O)[C@H](CC(=O)O)NC(=O)[C@H](C)NC(=O)[C@@H]1CCCN1C(C)=O)C(=O)NCC(=O)N[C@@H](CC(=O)O)C(=O)N[C@@H](CCCCN)C(=O)N[C@H](C(=O)N[C@@H](CC(N)=O)C(=O)N[C@@H](CC(C)C)C(N)=O)C(C)C | > 1 | 0.431 | > 1 | – | – | – | –
3 | CC1(C)CCC(CN2CCN(c3ccc(C(=O)NS(=O)(=O)c4ccc(NCC5CCOCC5)c([N+](=O)[O-])c4)c(Oc4cnc5[nH]ccc5c4)c3)CC2)=C(c2ccc(Cl)cc2)C1 | – | > 1 | – | > 1 | – | – | –
4 | CC(=O)N[C@@H](CCS)C(=O)N[C@@H](C)C(=O)N[C@H](C(=O)N[C@@H](CCC(N)=O)C(=O)N[C@@H](CC(C)C)C(=O)N[C@@H](CCCNC(=N)N)C(=O)N[C@@H](CCCNC(=N)N)C(=O)N[C@@H](Cc1ccccc1)C(=O)NCC(=O)N[C@@H](CC(=O)O)C(=O)N[C@@H](CCCCN)C(=O)N[C@@H](CC(C)C)C(=O)N[C@@H](CC(N)=O)C(=O)N[C@@H](Cc1ccccc1)C(=O)N[C@@H](CCCNC(=N)N)C(=O)N[C@@H](CCC(N)=O)C(=O)N[C@@H](CCCCN)C(=O)N[C@@H](CC(C)C)C(=O)N[C@@H](CC(C)C)C(=O)N[C@@H](CC(N)=O)C(N)=O)[C@@H](C)O (Ac-[hCys]ATQLRRFGDKLNFRQKLLN-NH2) | > 1 | 0.083 | > 1 | 0.266 | – | – | –
5 | C=CCCC[C@](C)(NC(=O)[C@H](CC(=O)O)NC(=O)CNC(=O)[C@@H](NC(=O)[C@](C)(CCCC=C)NC(=O)[C@H](CCCNC(=N)N)NC(=O)[C@H](CC(C)C)NC(=O)[C@H](CCC(=O)O)NC(=O)[C@H](CCC(N)=O)NC(=O)[C@H](C)NC(=O)C(CNC(=O)CCl)NC(C)=O)[C@@H](C)CC)C(=O)N[C@@H](Cc1ccccc1)C(=O)N[C@@H](CC(N)=O)C(=O)N[C@@H](C)C(=O)N[C@@H](Cc1ccc(O)cc1)C(=O)N[C@@H](Cc1ccc(O)cc1)C(=O)N[C@@H](C)C(=O)N[C@@H](CCCNC(=N)N)C(=O)N[C@@H](CCCNC(=N)N)C(N)=O (some centres not stated) [130D11] | 0.199 | 0.0139 | 0.22 | 0.032 | – | – | –
6 | CC[C@H](C)[C@H](NC(=O)[C@H](CCCNC(=N)N)NC(=O)[C@H](CCCNC(=N)N)NC(=O)[C@H](CC(C)C)NC(=O)[C@H](CCC(=O)O)NC(=O)[C@H](CCC(N)=O)NC(=O)[C@H](C)NC(=O)[C@@H](NC(=O)[C@H](CNC(=O)CCl)NC(C)=O)[C@@H](C)CC)C(=O)NCC(=O)N[C@@H](CC(=O)O)C(=O)N[C@@H](CCC(=O)O)C(=O)N[C@@H](Cc1ccccc1)C(=O)N[C@@H](CC(N)=O)C(=O)N[C@@H](C)C(=O)N[C@@H](Cc1ccc(O)cc1)C(=O)N[C@@H](Cc1ccc(O)cc1)C(=O)N[C@@H](C)C(=O)N[C@@H](CCCNC(=N)N)C(=O)N[C@@H](CCCNC(=N)N)C(N)=O [130E7] (Ac-[Dap](ClAc)IAQELRRIGDEFNAYYARR-NH2) | 0.027 | 0.0087 | 0.0465 | – | 0.0026 | 0.0255 | –
7 | CC[C@H](C)[C@H](NC(=O)C(CNC(=O)CCl)NC(C)=O)C(=O)N[C@@H](C)C(=O)N[C@@H](CCC(N)=O)C(=O)N[C@@H](CCC(=O)O)C(=O)N[C@@H](CC(C)C)C(=O)N[C@@H](CCCNC(=N)N)C(=O)N[C@@H](CCCNC(=N)N)C(=O)N[C@H](C(=O)NCC(=O)N[C@@H](CC(=O)O)C(=O)N[C@@H](CCC(=O)O)C(=O)N[C@@H](Cc1ccccc1)C(=O)N[C@@H](CC(N)=O)C(=O)N[C@@H](C)C(=O)N[C@@H](Cc1ccc(O)cc1)C(=O)N[C@@H](Cc1ccc(O)cc1)C(=O)N[C@@H](C)C(=O)N[C@@H](CCCNC(=N)N)C(=O)N[C@@H](CCCNC(=N)N)C(N)=O)[C@@H](C)CC (some centres not stated) [130E7] (Ac-[ξDap](ClAc)IAQELRRIGDEFNAYYARR-NH2) | – | – | – | 0.023 | – | – | 0.002
8 | CC(=O)NC(CNC(=O)CCl)C(=O)N[C@@H](C)C(=O)N[C@H](C(=O)N[C@@H](CCC(N)=O)C(=O)N[C@@H](CC(C)C)C(=O)N[C@@H](CCCNC(=N)N)C(=O)N[C@@H](CCCNC(=N)N)C(=O)N[C@@H](Cc1ccccc1)C(=O)NCC(=O)N[C@@H](CC(=O)O)C(=O)N[C@@H](CCCCN)C(=O)N[C@@H](CC(C)C)C(=O)N[C@@H](CC(N)=O)C(=O)N[C@@H](Cc1ccccc1)C(=O)N[C@@H](CCCNC(=N)N)C(=O)N[C@@H](CCC(N)=O)C(=O)N[C@@H](CCCCN)C(=O)N[C@@H](CC(C)C)C(=O)N[C@@H](CC(C)C)C(=O)N[C@@H](CC(N)=O)C(N)=O)[C@@H](C)O (some centres not stated) [λ_hNOXA] (Ac-[ξDap](ClAc)ATQLRRFGDKLNFRQKLLN-NH2) | – | – | – | 0.233 | – | – | –
9 | Ac-CATQLRRFGDKLN-NH2 | > 1 | 0.015 | > 1 | > 1 | – | – | –
10 | Ac-CATQLRRFGDKLNFRQKLLN-NH2 | > 1 | 0.0075 | > 1 | 0.228 | – | – | –
